Assay results as given in patent US20260306460A1, “COMPOSITION FOR REMOVING AND INHIBITING SENESCENT CELLS, AND USES THEREOF” (LIFECEUTIX CO., LTD., priority 2023, published 2026).

Columns and labels:
[1] = system: senescent A549 cells; test: Viability of senescent A549 cells (CellTiter-Glo), Example 18, Table 15; conditions: Homo sapiens, A549, read-out: Survival (%)
Experimental: Senescence-induced cancer cells treated with doxorubicin were treated with the test compound at designated concentrations, and cell viability was measured using the CellTiter-Glo Luminescent Cell Viability Assay (Promega).

[2] = system: carbon tetrachloride-induced liver fibrosis mice; test: Carbon tetrachloride-induced liver fibrosis mice, Example 31, Table 57; format: in vivo, mouse; conditions: CCl4-induced liver fibrosis mice, untreated = 100%
Experimental: (§1) The control group was administered only the solution in the same volume. After the end of drug administration, the method described in each example below was performed. Liver, kidney, skin, knee joint, heart, and femur tissues were collected from mice in which natural aging was induced in the same manner as in Examples 7-2 and 7-6 of WO2023-085787 A1. Lung tissues were collected from mice in which pulmonary fibrosis was induced using the same method as in Example 24-1. Liver tissues were collected from mice in which hepatic fibrosis was induced using the same method as in Example 26, and total RNA was extracted. qRT-PCR was performed and analyzed using the synthesized cDNA. […] The mRNA amounts of p16, MMP3, and IL6 after natural aging was induced were calculated as 100% and compared with the mRNA amounts of p16, MMP3, and IL6 after treatment with the test compound. In addition, an open field test for the analysis of aging-related frailty, agtr1a mRNA analysis for kidney damage and disease evaluation, col1a1 and SDF1 mRNA analysis for skin aging evaluation such as wrinkles/loss of elasticity/hyperpigmentation, col2a1 mRNA analysis for evaluating joint aging such as osteoarthritis, sur2a mRNA analysis for evaluating cardiac aging such as decreased cardiac load resistance, ctsk mRNA analysis for evaluating bone diseases due to aging such as osteoporosis, muscle tissue weight for analyzing sarcopenia, fat tissue weight for analyzing lipoatrophy, and cataract incidence analysis were performed in mice. For cataract incidence analysis, the drug was administered twice a week under the conditions specified above, and biweekly examinations were conducted until death.

[3] = system: naturally aged mice; test: Anti-aging evaluation in naturally aged mice, Example 31, Table 55; format: in vivo, mouse; conditions: for Femur Ctsk mRNA / Kidney Agtr1a mRNA / Liver IL6 mRNA / Liver MMP3 mRNA / Liver p16 mRNA / Open Field Test Time in Center: untreated = 100%; for Heart Sur2a mRNA / Joint Col2a1 mRNA / Skin Col1a1 mRNA / Skin SDF1 mRNA: untreated = 1.0; for Muscle Mass: untreated 0.64 g; for Fat Mass: untreated 0.82 g; for Cataract incidence: untreated 83%;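 for all read-outs here: Vehicle-dosed control mice received solution alone at matching volume, values compare test-compound-treated aged mice against that control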
Experimental: After the end of drug administration, the method described in each example below was performed. […] The mRNA amounts of p16, MMP3, and IL6 after natural aging was induced were calculated as 100% and compared with the mRNA amounts of p16, MMP3, and IL6 after treatment with the test compound. In addition, an open field test for the analysis of aging-related frailty, agtr1a mRNA analysis for kidney damage and disease evaluation, col1a1 and SDF1 mRNA analysis for skin aging evaluation such as wrinkles/loss of elasticity/hyperpigmentation, col2a1 mRNA analysis for evaluating joint aging such as osteoarthritis, sur2a mRNA analysis for evaluating cardiac aging such as decreased cardiac load resistance, ctsk mRNA analysis for evaluating bone diseases due to aging such as osteoporosis, muscle tissue weight for analyzing sarcopenia, fat tissue weight for analyzing lipoatrophy, and cataract incidence analysis were performed in mice. For cataract incidence analysis, the drug was administered twice a week under the conditions specified above, and biweekly examinations were conducted until death.

[4] = system: senescent cells; test: Viability of senescent cells (CellTiter-Glo), Example 17, Table 13; conditions: Homo sapiens, read-out: Survival (%)
Experimental: Cells induced to undergo senescence by doxorubicin treatment were treated with test compound at designated concentrations and measured using the CellTiter-Glo Luminescent Cell Viability Assay (Promega).

[5] = system: bleomycin-induced pulmonary fibrosis mice; test: Bleomycin-induced pulmonary fibrosis mice, Example 31, Table 56; format: in vivo, mouse; conditions: untreated = 100%
Experimental: as §1
The table below quantitatively presents the evaluation results for each item in mice with bleomycin-induced pulmonary fibrosis, untreated and treated with the test compound.

Compound | viability at 1.1 µM [1] [%] | viability at 10 µM [1] [%] | Liver p16 mRNA [2] | Col1a1 mRNA [2] | Femur Ctsk mRNA [3] [%] | Heart Sur2a mRNA [3] [fold] | Joint Col2a1 mRNA [3] [fold] | Kidney Agtr1a mRNA [3] [%] | Liver IL6 mRNA [3] [%] | Liver MMP3 mRNA [3] [%] | Liver p16 mRNA [3] [%] | Open Field Test Time in Center [3] [%] | Skin Col1a1 mRNA [3] [Fold] | Skin SDF1 mRNA [3] [fold] | Muscle Mass [3] [g] | Fat Mass [3] [g] | Cataract incidence [3] [%] | viability at 1.1 µM [4] [%] | Lung p16 mRNA [5] | Col1a1 mRNA [5] | also measured
O=C1C2CCN(CC2)C1(CO)COCc1ccccc1 (stereo not shown) [LX-5711] | 89 | 52.5 | 63 (±4.3) % | 74 (±3.0) % | 62 | 2.3 | 2.3 | 63 | 48 | 61 | 65 | 191 | 1.5 | 1.8 | 0.68 | 0.93 | 72 | 95.1 | 70 (±3.8) % | 71 (±4.0) % | viability at 30 µM [1]: 11.9%; viability at 10 µM [4]: 63.7%; viability at 30 µM [4]: 20.6%
[2H]C([2H])([2H])OCC1(CO)C(=O)C2CCN1CC2 (stereo not shown) [LX-5721] | 106 | 17.8 | 52 (±9.6) % | 80 (±9.3) % | 63 | 2.7 | 2.0 | 59 | 54 | 72 | 41 | 218 | 1.7 | 1.7 | 0.68 | 0.97 | 71 | 98.5 | 65 (±5.6) % | 78 (±4.7) % | viability at 10 µM [4]: 45.5%; viability at 30 µM [4]: 13.4%
[2H]C12CCN(CC1)C(CO)(COC)C2=O (stereo not shown) [LX-5722] | 99 | 4.1 | 69 (±6.2) % | 76 (±6.4) % | 59 | 2.4 | 2.1 | 52 | 73 | 63 | 46 | 222 | 1.8 | 1.6 | 0.70 | 1.03 | 69 | 91.5 | 73 (±5.5) % | 78 (±7.2) % | viability at 10 µM [4]: 34.1%; viability at 30 µM [4]: 1.8%
CN(NC(=O)CC(=O)NN(C)C(=S)c1ccccc1)C(=S)c1ccccc1 [LX-6501, Elesclomol] | 97 | 62.4 | 34 (±3.0) % | 75 (±2.5) % | 64 | 1.8 | 2.7 | 49 | 46 | 56 | 38 | 214 | 1.9 | 2.2 | 0.71 | 0.89 | 48 | 94.5 | 68 (±4.4) % | 75 (±5.3) % | viability at 30 µM [1]: 13%; viability at 10 µM [4]: 71.5%; viability at 30 µM [4]: 7.8%
NC(=O)c1ncn([C@@H]2O[C@H](CO)[C@@H](O)[C@H]2O)n1 [LX-6537, Ribavirin] | 102 | 66.8 | 77 (±5.7) % | 81 (±4.1) % | 67 | 1.6 | 2.2 | 73 | 48 | 67 | 74 | 177 | 1.9 | 1.4 | 0.68 | 0.85 | 72 | 90.9 | 64 (±3.2) % | 67 (±3.9) % | viability at 30 µM [1]: 2.4%; viability at 10 µM [4]: 67.3%; viability at 30 µM [4]: 12.2%
C=C1CC[C@@H]2[C@](C)(CO)[C@H](O)CC[C@@]2(C)[C@@H]1C/C=C1/C(=O)OC[C@H]1O [LX-6800, Andrographolide] | 80.9 | 70.9 | 80 (±4.9) % | 76 (±2.7) % | 58 | 2.3 | 2.4 | 78 | 56 | 77 | 73 | 154 | 2.1 | 2.0 | 0.70 | 0.91 | 75 | 81.6 | 78 (±3.8) % | 62 (±3.6) % | viability at 30 µM [1]: 43.8%; viability at 90 µM [1]: 17%; viability at 10 µM [4]: 56.5%; viability at 30 µM [4]: 2.2%
C[S+]([O-])CCCCN=C=S (stereo not shown) [LX-7103, Sulforaphane] | 102 | 37.6 | 70 (±2.2) % | 68 (±2.9) % | 65 | 2.1 | 2.3 | 67 | 67 | 79 | 65 | 218 | 2.6 | 2.6 | 0.67 | 0.96 | 69 | 84.3 | 65 (±2.1) % | 66 (±4.5) % | viability at 30 µM [1]: 4.1%; viability at 10 µM [4]: 7.9%
C[C@@H](Nc1nc(N[C@H](C)C(F)(F)F)nc(-c2cccc(Cl)n2)n1)C(F)(F)F [LX-8726, Vorasidenib] | 71.7 | 17.5 | 36 (±4.3) % | 48 (±4.3) % | 25 | 2.9 | 2.4 | 48 | 25 | 64 | 61 | 276 | 2.8 | 2.7 | 0.81 | 1.20 | 43 | 52.3 | 42 (±2.9) % | 58 (±5.3) % | 
Cn1cc(C[C@@H](N)C(=O)O)c2ccccc21 [LX-8801, Indoximod] | 62.5 | 8.4 | 49 (±4.3) % | 53 (±3.5) % | 35 | 2.9 | 1.7 | 72 | 33 | 63 | 54 | 205 | 2.1 | 2.6 | 0.69 | 0.94 | 59 | 69.1 | 44 (±3.0) % | 67 (±4.5) % | viability at 10 µM [4]: 1.2%
C[C@@H](C(=O)Nc1ccc(Cl)cc1)[C@H]1CC[C@@H](c2ccnc3ccc(F)cc32)CC1 [LX-8805, Linrodostat] | 103 | 58.3 | 60 (±3.9) % | 36 (±3.4) % | 58 | 2.6 | 2.6 | 55 | 25 | 67 | 47 | 217 | 1.7 | 1.9 | 0.72 | 0.87 | 68 | 99.1 | 40 (±2.1) % | 70 (±4.6) % | viability at 30 µM [1]: 32.8%; viability at 10 µM [4]: 42.1%; viability at 30 µM [4]: 21.8%
